Measured values taken from PubChem BioAssay (NCI).
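The compound was tested at five concentrations on cells cultured in 96-well plates, with a 48-hour exposure period. GI50 = concentration required for 50% inhibition of growth. TGI: concentration producing complete growth inhibition.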

How the values were obtained:
Assay in all cases: growth of human tumour cells (NCI), 48 h
SN12C renal = test system: SN12C renal
TK-10 renal = test system: TK-10 renal
MDA-MB-468 breast = test system: MDA-MB-468 breast
A549 NSCLC = test system: A549 NSCLC
SK-OV-3 ovarian = test system: SK-OV-3 ovarian
NCI-H23 lung = test system: NCI-H23 lung
MDA-MB-435 = test system: MDA-MB-435
SK-MEL-5 melanoma = test system: SK-MEL-5 melanoma
OVCAR-5 ovarian = test system: OVCAR-5 ovarian
HCT-15 colon = test system: HCT-15 colon
HCT-116 colon = test system: HCT-116 colon
SR leukemia = test system: SR leukemia
HS 578T breast = test system: HS 578T breast
HT29 colon = test system: HT29 colon
NCI-H522 lung = test system: NCI-H522 lung
DU-145 prostate = test system: DU-145 prostate
MDA-MB-231 breast = test system: MDA-MB-231 breast
UO-31 renal = test system: UO-31 renal
ACHN renal = test system: ACHN renal
NCI-H460 lung = test system: NCI-H460 lung
EKVX NSCLC = test system: EKVX NSCLC
A498 renal = test system: A498 renal
OVCAR-8 ovarian = test system: OVCAR-8 ovarian
MOLT-4 leukemia = test system: MOLT-4 leukemia
SK-MEL-2 melanoma = test system: SK-MEL-2 melanoma
RPMI-8226 leukemia = test system: RPMI-8226 leukemia
SNB-19 CNS = test system: SNB-19 CNS
U251 CNS = test system: U251 CNS
UACC-62 melanoma = test system: UACC-62 melanoma
786-0 renal = test system: 786-0 renal
UACC-257 melanoma = test system: UACC-257 melanoma
SF-295 CNS = test system: SF-295 CNS
CCRF-CEM leukemia = test system: CCRF-CEM leukemia
NCI-H226 lung = test system: NCI-H226 lung
M14 melanoma = test system: M14 melanoma
COLO 205 colon = test system: COLO 205 colon
MALME-3M melanoma = test system: MALME-3M melanoma
SNB-75 CNS = test system: SNB-75 CNS
RXF 393 renal = test system: RXF 393 renal
SF-268 CNS = test system: SF-268 CNS
BT-549 breast = test system: BT-549 breast
T-47D breast = test system: T-47D breast
LOX IMVI melanoma = test system: LOX IMVI melanoma
SK-MEL-28 melanoma = test system: SK-MEL-28 melanoma
PC-3 prostate = test system: PC-3 prostate
CAKI-1 renal = test system: CAKI-1 renal
NCI/ADR-RES ovarian = test system: NCI/ADR-RES ovarian
HOP-62 NSCLC = test system: HOP-62 NSCLC
HCC-2998 colon = test system: HCC-2998 colon
MCF7 breast = test system: MCF7 breast
SF-539 CNS = test system: SF-539 CNS
KM12 colon = test system: KM12 colon
HOP-92 NSCLC = test system: HOP-92 NSCLC
OVCAR-3 ovarian = test system: OVCAR-3 ovarian
IGROV1 ovarian = test system: IGROV1 ovarian
SW-620 colon = test system: SW-620 colon
HL-60(TB) leukemia = test system: HL-60(TB) leukemia
OVCAR-4 ovarian = test system: OVCAR-4 ovarian
K-562 leukemia = test system: K-562 leukemia

`COc1ccc(/C=C/C(=O)c2ccc(N3CCN(C)CC3)cc2)c(C(F)(F)F)c1` was tested, and the GI50 (SN12C renal) was 13.3 µM, the TGI (SN12C renal) was 26.4 µM and the GI50 (TK-10 renal) was 17.7 µM. The TGI (TK-10 renal) was 32.8 µM, the GI50 (MDA-MB-468 breast) was 3.54 µM and the TGI (MDA-MB-468 breast) was 13.9 µM. The GI50 (A549 NSCLC) was 13.2 µM, the TGI (A549 NSCLC) was 30.1 µM and the GI50 (SK-OV-3 ovarian) was 16.7 µM. The TGI (SK-OV-3 ovarian) was 33.5 µM, the GI50 (NCI-H23 lung) was 11.2 µM and the TGI (NCI-H23 lung) was 23.2 µM. It also gave a GI50 (MDA-MB-435) of 11.3 µM, a TGI (MDA-MB-435) of 24.7 µM and a GI50 (SK-MEL-5 melanoma) of 7.97 µM. The TGI (SK-MEL-5 melanoma) was 20.6 µM, the GI50 (OVCAR-5 ovarian) was 16.2 µM and the TGI (OVCAR-5 ovarian) was 29.7 µM. For the same compound, the GI50 (HCT-15 colon) was 4.61 µM, the TGI (HCT-15 colon) was 16.5 µM and the GI50 (HCT-116 colon) was 5.61 µM. The TGI (HCT-116 colon) was 39 µM, the GI50 (SR leukemia) was 6.74 µM and the TGI (SR leukemia) was > 100 µM. It also gave a GI50 (HS 578T breast) of 14.9 µM, a TGI (HS 578T breast) of 46.5 µM and a GI50 (HT29 colon) of 4.88 µM. The TGI (HT29 colon) was 22.3 µM, the GI50 (NCI-H522 lung) was 15.9 µM and the TGI (NCI-H522 lung) was 31.9 µM. The GI50 (DU-145 prostate) was 14.9 µM, the TGI (DU-145 prostate) was 31.2 µM and the GI50 (MDA-MB-231 breast) was 16.8 µM. It also gave a TGI (MDA-MB-231 breast) of 30.5 µM, a GI50 (UO-31 renal) of 12.3 µM and a TGI (UO-31 renal) of 24.7 µM. For the same compound, the GI50 (ACHN renal) was 15.1 µM, the TGI (ACHN renal) was 28.3 µM and the GI50 (NCI-H460 lung) was 14 µM. For the same compound, the TGI (NCI-H460 lung) was 27.9 µM, the GI50 (EKVX NSCLC) was 12.7 µM and the TGI (EKVX NSCLC) was 25.4 µM. The GI50 (A498 renal) was 16.5 µM, the TGI (A498 renal) was 30.8 µM and the GI50 (OVCAR-8 ovarian) was 20.8 µM. The TGI (OVCAR-8 ovarian) was 49.3 µM, the GI50 (MOLT-4 leukemia) was 9.11 µM and the TGI (MOLT-4 leukemia) was 32.8 µM. The GI50 (SK-MEL-2 melanoma) was 17.5 µM, the TGI (SK-MEL-2 melanoma) was 32.7 µM and the GI50 (RPMI-8226 leukemia) was 3.4 µM. It also gave a TGI (RPMI-8226 leukemia) of 47.7 µM, a GI50 (SNB-19 CNS) of 14.8 µM and a TGI (SNB-19 CNS) of 27.9 µM. It also gave a GI50 (U251 CNS) of 11.7 µM, a TGI (U251 CNS) of 34.4 µM and a GI50 (UACC-62 melanoma) of 14.1 µM. For the same compound, the TGI (UACC-62 melanoma) was 27 µM, the GI50 (786-0 renal) was 12.5 µM and the TGI (786-0 renal) was 37.7 µM. It also gave a GI50 (UACC-257 melanoma) of 15.3 µM, a TGI (UACC-257 melanoma) of 30.8 µM and a GI50 (SF-295 CNS) of 13.9 µM. For the same compound, the TGI (SF-295 CNS) was 27.2 µM, the GI50 (CCRF-CEM leukemia) was 7.61 µM and the TGI (CCRF-CEM leukemia) was 53.1 µM. For the same compound, the GI50 (NCI-H226 lung) was 12.4 µM, the TGI (NCI-H226 lung) was 28.3 µM and the GI50 (M14 melanoma) was 14.4 µM. For the same compound, the TGI (M14 melanoma) was 34.5 µM, the GI50 (COLO 205 colon) was 15.6 µM and the TGI (COLO 205 colon) was 35.5 µM. For the same compound, the GI50 (MALME-3M melanoma) was 12.9 µM, the TGI (MALME-3M melanoma) was 25.6 µM and the GI50 (SNB-75 CNS) was 11.7 µM. It also gave a TGI (SNB-75 CNS) of 24.5 µM, a GI50 (RXF 393 renal) of 4.12 µM and a TGI (RXF 393 renal) of 18.9 µM. It also gave a GI50 (SF-268 CNS) of 18.9 µM, a TGI (SF-268 CNS) of 41 µM and a GI50 (BT-549 breast) of 14.5 µM. The TGI (BT-549 breast) was 29.1 µM, the GI50 (T-47D breast) was 13.7 µM and the TGI (T-47D breast) was 34.6 µM. The GI50 (LOX IMVI melanoma) was 8.56 µM, the TGI (LOX IMVI melanoma) was 20.9 µM and the GI50 (SK-MEL-28 melanoma) was 14.7 µM. It also gave a TGI (SK-MEL-28 melanoma) of 27.9 µM, a GI50 (PC-3 prostate) of 13.2 µM and a TGI (PC-3 prostate) of 40.4 µM. It also gave a GI50 (CAKI-1 renal) of 14.2 µM, a TGI (CAKI-1 renal) of 27.5 µM and a GI50 (NCI/ADR-RES ovarian) of 13.2 µM. It also gave a TGI (NCI/ADR-RES ovarian) of 26.4 µM, a GI50 (HOP-62 NSCLC) of 19.3 µM and a TGI (HOP-62 NSCLC) of 37 µM. The GI50 (HCC-2998 colon) was 12 µM, the TGI (HCC-2998 colon) was 24.3 µM and the GI50 (MCF7 breast) was 4.6 µM. The TGI (MCF7 breast) was 19.5 µM, the GI50 (SF-539 CNS) was 14.2 µM and the TGI (SF-539 CNS) was 27.2 µM. It also gave a GI50 (KM12 colon) of 11 µM, a TGI (KM12 colon) of 24.9 µM and a GI50 (HOP-92 NSCLC) of 10.1 µM. The TGI (HOP-92 NSCLC) was 25.8 µM, the GI50 (OVCAR-3 ovarian) was 14.4 µM and the TGI (OVCAR-3 ovarian) was 29.3 µM. The GI50 (IGROV1 ovarian) was 15.4 µM, the TGI (IGROV1 ovarian) was 29 µM and the GI50 (SW-620 colon) was 11.2 µM. It also gave a TGI (SW-620 colon) of 23.9 µM, a GI50 (HL-60(TB) leukemia) of 4.87 µM and a TGI (HL-60(TB) leukemia) of 24.7 µM. The GI50 (OVCAR-4 ovarian) was 15.5 µM, the TGI (OVCAR-4 ovarian) was 34.4 µM and the GI50 (K-562 leukemia) was 2.96 µM. For the same compound, the TGI (K-562 leukemia) was 22.1 µM.
